From patent US20160183526A1, “FUNGICIDAL COMPOSITIONS” (Dow AgroSciences LLC, priority 2014, published 2016)

Columns and labels:
Format in all cases: physicochemical
[1] = Approximate relative solubility of active ingredients in organic solvents at ambient temperature
[2] = Solubility of Compound A and prothioconazole in benzyl acetate/AMD810/cyclohexanone blends at 10° C.; details: one week
Description: A total of 20 g of each solvent blend was prepared per sample. For example, one of the blends (Blend 4) was prepared by combining cyclohexanone 0.2 (4 g), benzyl acetate 0.2 (4 g) and AMD810 0.6 (12 g). To Blend 4 were added amounts of Compound A and prothioconazole technical active ingredients to achieve saturation concentrations of each. The samples were then stored at 10° C. for one week and then were analysed for soluble active ingredient content.

[3] = Approximate relative solubility of active ingredients in organic solvents at ambient temperature; remark: listed apart in the source
Description: The approximate solubility of Compound A was determined by mixing a known mass of the active ingredient with an increasing mass of each solvent at ambient temperature. […] The solubility of Compound A in the solvents used in this screening procedure was generally classified within the following concentration ranges: […]

[4] = Accelerated storage stability of Compound A in liquid compositions, 2 weeks at 54° C. (HPLC); details: 2 weeks 54° C.
Description: The test compositions were prepared in a manner similar to that described in Example 1 using one or more of Compound A, prothioconazole, pyraclostrobin, benzyl acetate, and AMD 810, and a third solvent chosen from cyclohexanone, acetophenone, 2-heptanone, 2-heptanol, oleyl alcohol or 2-ethylhexanol.

[5] = Solubility of a mixture of Compound A and prothioconazole in benzyl acetate/AMD810 blends at 10° C. (HPLC); details: both actives saturated
Description: A study of the Compound A and prothioconazole solubility in blends of benzyl acetate/AMD810 was conducted. To each solvent blend both actives were added until each was saturated and the resulting mixtures were then stored at 10° C. until equilibrium was obtained. Aliquots of the supernatant layer were taken from each sample, filtered (0.45 μm mesh) and analyzed by HPLC to determine the solution concentration of each active in the blends.

**Q.** Which “Relative Solubility of Compound A” value ([1]; in 2-ethylhexyl benzoate) does the source give for COc1ccnc(C(=O)N[C@H]2COC(=O)[C@H](Cc3ccccc3)[C@@H](OC(=O)C(C)C)[C@H](C)OC2=O)c1OCOC(=O)C(C)C [Compound A, propanoic acid, 2-methyl-, [[4-methoxy-2-[[[(3S,7R,8R,9S)-9-methyl-8-(2-methyl-1-oxopropoxy)-2,6-dioxo-7-(phenylmethyl)-1,5-dioxonan-3-yl]amino]carbonyl]-3-pyridinyl]oxy]methyl ester] here?
**A.** Its value is “Very Low (<3.0)”.

**Q.** And the “Relative Solubility of Compound A” value ([1]; in 2-ethylhexyl lactate)?
**A.** The value was “Very Low (<3.0)”.

**Q.** What about the “Relative Solubility of Compound A” value ([1]; in 2-heptanone) of the same molecule?
**A.** The value was “Medium (8.4 to 5.6)”.

**Q.** What about the “Relative Solubility of Compound A” value ([1]; in Benzyl alcohol) of the same molecule?
**A.** Its value is “High (>8.4)”.

**Q.** And the “Relative Solubility of Compound A” value ([1]; in Butyl benzoate)?
**A.** The value was “Medium (8.4 to 5.6)”.

**Q.** And the “Relative Solubility of Compound A” value ([1]; in Butyl lactate)?
**A.** Its value is “Medium (8.4 to 5.6)”.

**Q.** What about the “Relative Solubility of Compound A” value ([1]; in Butylene carbonate) of the same molecule?
**A.** The value was “Very Low (<3.0)”.

**Q.** And the “Relative Solubility of Compound A” value ([1]; in Di-n-butyl carbonate)?
**A.** The value was “Very Low (<3.0)”.

**Q.** What about the “Relative Solubility of Compound A” value ([1]; in Diethylene glycol monoethyl ether) of the same molecule?
**A.** Its value is “Low (5.6 to 3.0)”.

**Q.** And the “Relative Solubility of Compound A” value ([1]; in Ethyl Diglycol Acetate)?
**A.** The value was “Low (5.6 to 3.0)”.

**Q.** And the “Relative Solubility of Compound A” value ([1]; in Methyl salicylate)?
**A.** The value was “High (>8.4)”.

**Q.** And the “Relative Solubility of Compound A” value ([1]; in N,N dimethyl fatty acid amides)?
**A.** Its value is “Low (5.6 to 3.0)”.

**Q.** And the “Relative Solubility of Compound A” value ([1]; in N-formyl morpholine and propylene carbonate)?
**A.** Its value is “High (>8.4)”.

**Q.** And the “Relative Solubility of Compound A” value ([1]; in Polyethylene glycol)?
**A.** The value was “Very Low (<3.0)”.

**Q.** What about the “Relative Solubility of Compound A” value ([1]; in Polypropylene glycol) of the same molecule?
**A.** Its value is “Very Low (<3.0)”.

**Q.** And the “Relative Solubility of Compound A” value ([1]; in Propylene carbonate)?
**A.** The value was “Very Low (<3.0)”.

**Q.** And the “Relative Solubility of Compound A” value ([1]; in Soybean oil)?
**A.** The value was “Very Low (<3.0)”.

**Q.** And the “Relative Solubility of Compound A” value ([1]; in Sulfolane)?
**A.** The value was “High (>8.4)”.

**Q.** And the “Relative Solubility of Compound A” value ([1]; in dimethyl esters of adipic, glutaric and succinic acids)?
**A.** The value was “Low (5.6 to 3.0)”.

**Q.** What about the “Compound A Solubility @ 10° C.” value ([2]; Blend 1: cyclohexanone 0/benzyl acetate 0/AMD810 1 (weight fraction)) of the same molecule?
**A.** The value was 3.3 % w/w.

**Q.** What about the “Compound A Solubility @ 10° C.” value ([2]; Blend 2: cyclohexanone 0/benzyl acetate 0.2/AMD810 0.8 (weight fraction)) of the same molecule?
**A.** The value was 4.3 % w/w.

**Q.** What about the “Compound A Solubility @ 10° C.” value ([2]; Blend 3: cyclohexanone 0.2/benzyl acetate 0/AMD810 0.8 (weight fraction)) of the same molecule?
**A.** Its value is 4.5 % w/w.

**Q.** What about the “Compound A Solubility @ 10° C.” value ([2]; Blend 4: cyclohexanone 0.2/benzyl acetate 0.2/AMD810 0.6 (weight fraction)) of the same molecule?
**A.** Its value is 6.2 % w/w.

**Q.** What about the “Compound A Solubility @ 10° C.” value ([2]; Blend 5: cyclohexanone 0/benzyl acetate 0.4/AMD810 0.6 (weight fraction)) of the same molecule?
**A.** Its value is 6.5 % w/w.

**Q.** What about the “Compound A Solubility @ 10° C.” value ([2]; Blend 6: cyclohexanone 0.2/benzyl acetate 0.4/AMD810 0.4 (weight fraction)) of the same molecule?
**A.** The value was 10.5 % w/w.

**Q.** What about the “Compound A Solubility @ 10° C.” value ([2]; Blend 7: cyclohexanone 0/benzyl acetate 0.6/AMD810 0.4 (weight fraction)) of the same molecule?
**A.** Its value is 11 % w/w.

**Q.** What about the “Compound A Solubility @ 10° C.” value ([2]; Blend 8: cyclohexanone 0/benzyl acetate 0.8/AMD810 0.2 (weight fraction)) of the same molecule?
**A.** Its value is 12 % w/w.

**Q.** What about the “Compound A Solubility @ 10° C.” value ([2]; Blend 10: cyclohexanone 0.2/benzyl acetate 0.6/AMD810 0.2 (weight fraction)) of the same molecule?
**A.** The value was 13.6 % w/w.

**Q.** And the “Compound A Solubility @ 10° C.” value ([2]; Blend 11: cyclohexanone 0/benzyl acetate 1/AMD810 0 (weight fraction))?
**A.** The value was 14.3 % w/w.

**Q.** And the “Compound A Solubility @ 10° C.” value ([2]; Blend 12: cyclohexanone 0.2/benzyl acetate 0.8/AMD810 0 (weight fraction))?
**A.** The value was 15.2 % w/w.

**Q.** And the “Compound A content of clear solution” value ([3]; 0.2 g Compound A mixed with 1.38 g cyclohexanone)?
**A.** Its value is 12.6 % w/w.

**Q.** And the “Relative Solubility of Compound A” value ([3]; in 2-ethylhexanol)?
**A.** The value was “Very Low (<3.0)”.

**Q.** And the “Relative Solubility of Compound A” value ([3]; in Alkyl naphthalene mixture)?
**A.** Its value is “Very Low (<3.0)”.

**Q.** What about the “Relative Solubility of Compound A” value ([3]; in Benzyl acetate) of the same molecule?
**A.** Its value is “High (>8.4)”.

**Q.** What about the “Relative Solubility of Compound A” value ([3]; in Cyclohexanone) of the same molecule?
**A.** Its value is “High (>8.4)”.

**Q.** And the “Relative Solubility of Compound A” value ([3]; in Isoparaffin)?
**A.** Its value is “Very Low (<3.0)”.

**Q.** What about the “Relative Solubility of Compound A” value ([3]; in Isopropyl benzoate) of the same molecule?
**A.** Its value is “Medium (8.4 to 5.6)”.

**Q.** And the “Relative Solubility of Compound A” value ([3]; in Methyl oleate)?
**A.** The value was “Very Low (<3.0)”.

**Q.** And the “Relative Solubility of Compound A” value ([3]; in Methyl-5-(Dimethylamino)-2-Methyl-5-Oxopentanoate)?
**A.** The value was “High (>8.4)”.

**Q.** And the “Relative Solubility of Compound A” value ([3]; in Pentanedioic acid, 2-methyl-1, 5-dimethyl ester)?
**A.** Its value is “Medium (8.4 to 5.6)”.

**Q.** What about the “Relative Solubility of Compound A” value ([3]; in Tributoxyethyl phosphate) of the same molecule?
**A.** The value was “Low (5.6 to 3.0)”.

**Q.** And the “Compound A after Storage (% retention)” value ([4]; wt %: Compound A 3.4, AMD 810 96.0)?
**A.** Its value is 49^ % retention.

**Q.** What about the “Compound A after Storage (% retention)” value ([4]; wt %: Compound A 4.1, pyraclostrobin 5.2, benzyl acetate 37.0, AMD 810 20.0, cyclohexanone 8.2, emulsifier blend 14.7) of the same molecule?
**A.** The value was 93^2 % retention.

**Q.** What about the “Compound A after Storage (% retention)” value ([4]; wt %: Compound A 4.9, benzyl acetate 94.1) of the same molecule?
**A.** The value was 85^ % retention.

**Q.** And the “Compound A after Storage (% retention)” value ([4]; wt %: Compound A 4.9, prothioconazole 7.4, benzyl acetate 46.8, AMD 810 25.2, no third solvent, emulsifier blend 14.7)?
**A.** The value was 91^2 % retention.

**Q.** And the “Compound A after Storage (% retention)” value ([4]; wt %: Compound A 4.9, pyraclostrobin 5.0, benzyl acetate 48.4, AMD 810 26.0, no third solvent, emulsifier blend 14.7)?
**A.** The value was 92^2 % retention.

**Q.** And the “Compound A after Storage (% retention)” value ([4]; wt %: Compound A 4.9, pyraclostrobin 6.3, benzyl acetate 41.2, AMD 810 22.2, cyclohexanone 9.8)?
**A.** The value was 98^ % retention.

**Q.** What about the “Compound A after Storage (% retention)” value ([4]; wt %: Compound A 4.9, pyraclostrobin 6.3, benzyl acetate 44.4, AMD 810 23.9, 2-ethyl hexanol 4.9, emulsifier blend 14.7) of the same molecule?
**A.** The value was 96^2 % retention.

**Q.** What about the “Compound A after Storage (% retention)” value ([4]; wt %: Compound A 4.9, pyraclostrobin 6.3, benzyl acetate 44.4, AMD 810 23.9, 2-heptanol 4.9, emulsifier blend 14.7) of the same molecule?
**A.** The value was 94^2 % retention.

**Q.** And the “Compound A after Storage (% retention)” value ([4]; wt %: Compound A 4.9, pyraclostrobin 6.3, benzyl acetate 44.4, AMD 810 23.9, 2-heptanone 4.9, emulsifier blend 14.7)?
**A.** Its value is 93^2 % retention.

**Q.** What about the “Compound A after Storage (% retention)” value ([4]; wt %: Compound A 4.9, pyraclostrobin 6.3, benzyl acetate 44.4, AMD 810 23.9, acetophenone 4.9, emulsifier blend 14.7) of the same molecule?
**A.** Its value is 94^2 % retention.

**Q.** And the “Compound A after Storage (% retention)” value ([4]; wt %: Compound A 4.9, pyraclostrobin 6.3, benzyl acetate 44.4, AMD 810 23.9, oleyl alcohol 4.9, emulsifier blend 14.7)?
**A.** The value was 92^2 % retention.

**Q.** What about the “Compound A after Storage (% retention)” value ([4]; wt %: Compound A 5.0, pyraclostrobin 6.4, benzyl acetate 40.9, AMD 810 22.0, 2-ethyl hexanol 10.0) of the same molecule?
**A.** The value was 95^ % retention.

**Q.** What about the “Compound A after Storage (% retention)” value ([4]; wt %: Compound A 7.7, pyraclostrobin 9.8, benzyl acetate 37.1, AMD 810 20.0, cyclohexanone 9.6) of the same molecule?
**A.** The value was 97^ % retention.

**Q.** What about the “Compound A after Storage (% retention)” value ([4]; wt %: Compound A 7.8, pyraclostrobin 9.9, benzyl acetate 36.7, AMD 810 19.8, 2-ethyl hexanol 9.7) of the same molecule?
**A.** The value was 97^ % retention.

**Q.** What about the “Compound A after Storage (% retention)” value ([4]; wt %: Compound A 12.0, cyclohexanone 85.7) of the same molecule?
**A.** Its value is 96^ % retention.

**Q.** What about the “Compound A Solubility at 10° C.” value ([5]; benzyl acetate 0 wt % in blend with AMD810) of the same molecule?
**A.** The value was 3.3 % w/w.

**Q.** And the “Compound A Solubility at 10° C.” value ([5]; benzyl acetate 20 wt % in blend with AMD810)?
**A.** Its value is 4.3 % w/w.

**Q.** What about the “Compound A Solubility at 10° C.” value ([5]; benzyl acetate 40 wt % in blend with AMD810) of the same molecule?
**A.** The value was 6.5 % w/w.

**Q.** And the “Compound A Solubility at 10° C.” value ([5]; benzyl acetate 60 wt % in blend with AMD810)?
**A.** Its value is 11.0 % w/w.

**Q.** And the “Compound A Solubility at 10° C.” value ([5]; benzyl acetate 80 wt % in blend with AMD810)?
**A.** The value was 12.0 % w/w.

**Q.** What about the “Compound A Solubility at 10° C.” value ([5]; benzyl acetate 100 wt % in blend with AMD810) of the same molecule?
**A.** Its value is 14.3 % w/w.
